Measurements reported in patent US6355615B1, “Desoxycyclodepsipeptides and their use for combatting endoparasites” (Bayer Aktiengesellschaft, priority 1997, dated 2002).
Where two headings read alike, the source gives them in different places.

How the values were obtained:
Haemonchus contortus = assay: Haemonchus contortus/sheep: nematode egg count in feces before and after oral treatment; format: in vivo; conditions: for minimal effective dose: read-out: effective dose (Dosis effectiva)
Experimental: Haemonchus contortus/sheep
Sheep experimentally infected with Haemonchus contortus were treated after expiry of the prepatency time of the parasite.
The active compounds were administered orally in gelatin capsules as pure active ingredient.
The efficacy is determined by quantitatively counting the nematode eggs excreted with the feces before and after treatment.
Complete cessation of oviposition after treatment means that the nematodes have been expelled or are so damaged that they no longer produce eggs (Dosis effectiva).

[1] = sheep experimentally infected with Haemonchus contortus, oral, gelatin capsules, pure active ingredient, complete cessation of oviposition after treatment

Molecule `CC(C)C[C@H]1C(=O)O[C@H](Cc2ccc(OCc3ccco3)cc2)C(=O)N(C)[C@@H](CC(C)C)C(=O)O[C@H](C)CN(C)[C@@H](CC(C)C)C(=O)O[C@H](Cc2ccc(OCc3ccco3)cc2)C(=O)N(C)[C@@H](CC(C)C)C(=O)O[C@H](C)CN1C` (stereo in doubt) has a melting point of 116 to 119 °C.

For `CC(C)C[C@H]1C(=O)O[C@H](Cc2ccccc2)C(=O)N(C)[C@@H](CC(C)C)C(=O)O[C@H](C)CN(C)[C@@H](CC(C)C)C(=O)O[C@H](Cc2ccccc2)C(=O)N(C)[C@@H](CC(C)C)C(=O)O[C@H](C)CN1C` [Example 1-b, 8,20-dibenzyl-5,11,17,23-tetraisobutyl-2,4,10,14,16,22-hexamethyl-1,7,13,19-tetraoxa-4,10,16,22-tetraaza-cyclotetracosan-6,9,12,18,21,24-hexaone], the minimal effective dose (Haemonchus contortus; Haemonchus contortus, po) was < 1 mg/kg and the melting point was 149 to 150 °C.

In the case of `CC(C)C[C@H]1C(=O)O[C@H](Cc2ccccc2)CN(C)[C@@H](CC(C)C)C(=O)O[C@H](C)CN(C)[C@@H](CC(C)C)C(=O)O[C@H](Cc2ccccc2)CN(C)[C@@H](CC(C)C)C(=O)O[C@H](C)CN1C` [Example 2, 8,20-dibenzyl-5,11,17,23-tetraisobutyl-2,4,10,14,16,22-hexamethyl-1,7,13,19-tetraoxa-4,10,16,22-tetraazacyclotetracosan-6,12,18,24-tetraone], the minimal effective dose (Haemonchus contortus; Haemonchus contortus, po) is reported as < 1 mg/kg.

With `CC(C)C[C@H]1C(=O)O[C@H](Cc2ccc(N3CCOCC3)cc2)C(=O)N(C)[C@@H](CC(C)C)C(=O)O[C@H](C)CN(C)[C@@H](CC(C)C)C(=O)O[C@H](Cc2ccc(N3CCOCC3)cc2)C(=O)N(C)[C@@H](CC(C)C)C(=O)O[C@H](C)CN1C` [Example 5, 5,11,17,23-tetraisobutyl-2,4,10,14,16,22-hexamethyl-8,20-bis-[4-(N-morpholinyl)benzyl]-1,7,13,19-tetraoxa-4,10,16,22-tetraaza-cyclotetracosan-6,9,12,18,21,24-hexaone] the minimal effective dose (Haemonchus contortus; [1]) was < 1 mg/kg.

For `CC(C)C[C@H]1C(=O)O[C@H](Cc2ccc(N3CCOCC3)cc2)C(=O)N(C)[C@@H](CC(C)C)C(=O)O[C@H](C)CN(C)[C@@H](CC(C)C)C(=O)O[C@H](Cc2ccccc2N2CCOCC2)C(=O)N(C)[C@@H](CC(C)C)C(=O)O[C@H](C)CN1C` [Example 6, 5,11,17,23-tetraisobutyl-2,4,10,14,16,22-hexamethyl-8-[-4-(N-morpholinyl)benzyl]-20-[2-(N-morpholinyl)benzyl]-1,7,13,19-tetraoxa-4,10,16,22-tetraaza-cyclotetracosan-6,9,12,18,21,24-hexaone], the minimal effective dose (Haemonchus contortus; Haemonchus contortus, po) was < 1 mg/kg.

In the case of `CC(C)CC1C(=O)OC(C)CN(C)C(CC(C)C)C(=O)OC(Cc2ccc(N3CCOCC3)cc2)C(=O)N(C)C(CC(C)C)C(=O)OC(C)CN(C)C(CC(C)C)C(=O)OC(Cc2ccc(N3CCOCC3)cc2)CN1C` (centres unmarked) [Example 7-c, 5,11,17,23-tetraisobutyl-2,4,10,14,16,22-hexamethyl-8,20-bis-[4-(N-morpholinyl)benzyl]-1,7,13,19-tetraoxa-4,10,16,22-tetraaza-cyclotetracosan-6,9,12,18,24-pentaone], the minimal effective dose (Haemonchus contortus; [1]) is reported as < 1 mg/kg.

For `CC(C)CC1C(=O)OC(C)CN(C)C(CC(C)C)C(=O)OC(Cc2ccc(N3CCOCC3)cc2)CN(C)C(CC(C)C)C(=O)OC(C)CN(C)C(CC(C)C)C(=O)OC(Cc2ccc(N3CCOCC3)cc2)CN1C` (centres unmarked) [Example 7-d, 5,11,17,23-tetraisobutyl-2,4,10,14,16,22-hexamethyl-8,20-bis-[4-(N-morpholinyl)benzyl]-1,7,13,19-tetraoxa-4,10,16,22-tetraaza-cyclotetracosan-6,12,18,24-tetraone], the minimal effective dose (Haemonchus contortus; [1]) was < 1 mg/kg.

For `CC(C)C[C@H]1C(=O)O[C@H](Cc2ccc(-n3cccc3)cc2)C(=O)N(C)[C@@H](CC(C)C)C(=O)O[C@H](C)CN(C)[C@@H](CC(C)C)C(=O)O[C@H](Cc2ccc(-n3cccc3)cc2)C(=O)N(C)[C@@H](CC(C)C)C(=O)O[C@H](C)CN1C` [Example 14, 8,20-bis-[4-(1-pyrrolyl)-benzyl]-5,11,17,23-tetraisobutyl-2,4,10,14,16,22-hexamethyl-1,7,13,19-tetraoxa-4,10,16,22-tetraaza-cyclotetracosan-6,9,12,18,21,24-hexaone], the minimal effective dose (Haemonchus contortus; Haemonchus contortus, po) was < 1 mg/kg.

With `COCCNc1ccc(CC2OC(=O)C(CC(C)C)N(C)CC(C)OC(=O)C(CC(C)C)N(C)C(=O)C(Cc3ccc(NCCOC)cc3)OC(=O)C(CC(C)C)N(C)CC(C)OC(=O)C(CC(C)C)N(C)C2=O)cc1` (stereo not drawn) [Example 16-a, 8,20-bis-(4-β-methoxyethylaminobenzyl)-5,11,17,23-tetraisobutyl-2,4,10,14,16,22-hexamethyl-1,7,13,19-tetraoxa-4,10,16,22-tetraaza-cyclotetracosan-6,9,12,18,21,24-hexaone] the minimal effective dose (Haemonchus contortus; [1]) was < 1 mg/kg.

With `COCCN(CCOC)c1ccc(CC2OC(=O)C(CC(C)C)N(C)CC(C)OC(=O)C(CC(C)C)N(C)C(=O)C(Cc3ccc(N(CCOC)CCOC)cc3)OC(=O)C(CC(C)C)N(C)CC(C)OC(=O)C(CC(C)C)N(C)C2=O)cc1` (stereo not drawn) [Example 16-c, 8,20-bis-[4-bis-(β-methoxyethyl)aminobenzyl)-5,11,17,23-tetraisobutyl-2,4,10,14,16,22-hexamethyl-1,7,13,19-tetraoxa-4,10,16,22-tetraazacyclotetracosan-6,9,12,18,21,24-hexaone] the minimal effective dose (Haemonchus contortus; Haemonchus contortus, po) was < 1 mg/kg.

In the case of `COCCNc1ccc(CC2OC(=O)C(CC(C)C)N(C)C(=O)C(C)OC(=O)C(CC(C)C)N(C)C(=O)C(Cc3ccc(N(CCOC)CCOC)cc3)OC(=O)C(CC(C)C)N(C)CC(C)OC(=O)C(CC(C)C)N(C)C2=O)cc1` (stereo not drawn) [Example 17-a, 8(or 20)-[4-bis-(β-methoxyethyl)aminobenzyl]-20(or 8)-(4-β-methoxyethylaminobenzyl)-5,11,17,23-tetraisobutyl-2,4,10,14,16,22-hexamethyl-1,7,13,19-tetraoxa-4,10,16,22-tetraaza-cyclotetracosan-6,9,12,15,18,21,24-heptaone], the “effective dose (Dosis effectiva)” value (Haemonchus contortus; [1]) is reported as <1 mg/kg.

In the case of `CC(C)C[C@H]1C(=O)O[C@H](Cc2ccc(NCc3ccco3)cc2)C(=O)N(C)[C@@H](CC(C)C)C(=O)O[C@H](C)CN(C)[C@@H](CC(C)C)C(=O)O[C@H](Cc2ccc(NCc3ccco3)cc2)C(=O)N(C)[C@@H](CC(C)C)C(=O)O[C@H](C)CN1C` [Example 19, 8,20-bis-N-[4-(2-furylmethylanino)benzyl]-5,11,17,23-tetraisobutyl-2,4,10,14,16,22-hexamethyl-1,7,13,19-tetraoxa-4,10,16,22-tetraaza-cyclotetracosan-6,9,12,18,21,24-hexaone], the minimal effective dose (Haemonchus contortus; Haemonchus contortus, po) is reported as < 1 mg/kg.

Work on `CC(=O)N1CCN(S(=O)(=O)c2ccc(CC3OC(=O)C(CC(C)C)N(C)CC(C)OC(=O)C(CC(C)C)N(C)C(=O)C(Cc4ccc(S(=O)(=O)O)cc4)OC(=O)C(CC(C)C)N(C)CC(C)OC(=O)C(CC(C)C)N(C)C3=O)cc2)CC1` (centres unmarked) [Example 21-b, 8-[4-(4-acetylpiperazin-1-yl)-sulfonyl-benzyl]-20-(4-sulfobenzyl)-5,11,17,23-tetraisobutyl-2,4,10,14,16,22-hexamethyl-1,7,13,19-tetraoxa-4,10,16,22-tetraaza-cyclotetracosan-6,9,12,18,21,24-hexaone] yielded a minimal effective dose (Haemonchus contortus; Haemonchus contortus, po) of 1 mg/kg.
